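A five-concentration, 48-hour dose response in 96-well plates underlies each endpoint, interpolated linearly between surrounding concentrations. TGI: total growth inhibition.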
Key:
Test in all cases: inhibition of tumour cell growth, NCI panel, 48 h
CAKI-1 renal = system: CAKI-1 renal
SK-MEL-5 melanoma = system: SK-MEL-5 melanoma
HOP-62 NSCLC = system: HOP-62 NSCLC
SN12C renal = system: SN12C renal
MDA-MB-231 breast = system: MDA-MB-231 breast
MALME-3M melanoma = system: MALME-3M melanoma
SF-539 CNS = system: SF-539 CNS
OVCAR-4 ovarian = system: OVCAR-4 ovarian
A498 renal = system: A498 renal
786-0 renal = system: 786-0 renal
ACHN renal = system: ACHN renal
PC-3 prostate = system: PC-3 prostate
MCF7 breast = system: MCF7 breast
K-562 leukemia = system: K-562 leukemia
SNB-75 CNS = system: SNB-75 CNS
OVCAR-8 ovarian = system: OVCAR-8 ovarian
UO-31 renal = system: UO-31 renal
OVCAR-5 ovarian = system: OVCAR-5 ovarian
HCT-116 colon = system: HCT-116 colon
NCI-H226 lung = system: NCI-H226 lung
HOP-92 NSCLC = system: HOP-92 NSCLC
U251 CNS = system: U251 CNS
HCC-2998 colon = system: HCC-2998 colon
A549 NSCLC = system: A549 NSCLC
DU-145 prostate = system: DU-145 prostate
KM12 colon = system: KM12 colon
HT29 colon = system: HT29 colon
SR leukemia = system: SR leukemia
M14 melanoma = system: M14 melanoma
NCI-H23 lung = system: NCI-H23 lung
NCI/ADR-RES ovarian = system: NCI/ADR-RES ovarian
SK-MEL-2 melanoma = system: SK-MEL-2 melanoma
MDA-MB-435 = system: MDA-MB-435
CCRF-CEM leukemia = system: CCRF-CEM leukemia
TK-10 renal = system: TK-10 renal
MOLT-4 leukemia = system: MOLT-4 leukemia
COLO 205 colon = system: COLO 205 colon
SK-MEL-28 melanoma = system: SK-MEL-28 melanoma
IGROV1 ovarian = system: IGROV1 ovarian
SW-620 colon = system: SW-620 colon
MDA-N = system: MDA-N
OVCAR-3 ovarian = system: OVCAR-3 ovarian
UACC-62 melanoma = system: UACC-62 melanoma
EKVX NSCLC = system: EKVX NSCLC
HS 578T breast = system: HS 578T breast
LOX IMVI melanoma = system: LOX IMVI melanoma
SF-295 CNS = system: SF-295 CNS
NCI-H460 lung = system: NCI-H460 lung
BT-549 breast = system: BT-549 breast
HCT-15 colon = system: HCT-15 colon
T-47D breast = system: T-47D breast
SNB-19 CNS = system: SNB-19 CNS
UACC-257 melanoma = system: UACC-257 melanoma
HL-60(TB) leukemia = system: HL-60(TB) leukemia
RPMI-8226 leukemia = system: RPMI-8226 leukemia
SK-OV-3 ovarian = system: SK-OV-3 ovarian
SF-268 CNS = system: SF-268 CNS
NCI-H522 lung = system: NCI-H522 lung

**Q.** Which results are given for O=C1c2ccccc2C(=O)N1n1c(Cc2ccc(Cl)cc2)n[nH]c1=O?
**A.** TGI (CAKI-1 renal): > 100 µM; TGI (SK-MEL-5 melanoma): > 100 µM; TGI (HOP-62 NSCLC): > 100 µM; TGI (SN12C renal): > 100 µM; TGI (MDA-MB-231 breast): > 100 µM; TGI (MALME-3M melanoma): > 100 µM; TGI (SF-539 CNS): > 100 µM; TGI (OVCAR-4 ovarian): > 100 µM; TGI (A498 renal): > 100 µM; TGI (786-0 renal): > 100 µM; TGI (ACHN renal): > 100 µM; TGI (PC-3 prostate): > 100 µM; TGI (MCF7 breast): > 100 µM; TGI (K-562 leukemia): > 100 µM; TGI (SNB-75 CNS): > 100 µM; TGI (OVCAR-8 ovarian): > 100 µM; TGI (UO-31 renal): > 100 µM; TGI (OVCAR-5 ovarian): > 100 µM; TGI (HCT-116 colon): > 100 µM; TGI (NCI-H226 lung): > 100 µM; TGI (HOP-92 NSCLC): > 100 µM; TGI (U251 CNS): > 100 µM; TGI (HCC-2998 colon): > 100 µM; TGI (A549 NSCLC): > 100 µM; TGI (DU-145 prostate): > 100 µM; TGI (KM12 colon): > 100 µM; TGI (HT29 colon): > 100 µM; TGI (SR leukemia): > 100 µM; TGI (M14 melanoma): > 100 µM; TGI (NCI-H23 lung): > 100 µM; TGI (NCI/ADR-RES ovarian): > 100 µM; TGI (SK-MEL-2 melanoma): > 100 µM; TGI (MDA-MB-435): > 100 µM; TGI (CCRF-CEM leukemia): > 100 µM; TGI (TK-10 renal): > 100 µM; TGI (MOLT-4 leukemia): > 100 µM; TGI (COLO 205 colon): > 100 µM; TGI (SK-MEL-28 melanoma): > 100 µM; TGI (IGROV1 ovarian): > 100 µM; TGI (SW-620 colon): > 100 µM; TGI (MDA-N): > 100 µM; TGI (OVCAR-3 ovarian): > 100 µM; TGI (UACC-62 melanoma): > 100 µM; TGI (EKVX NSCLC): > 100 µM; TGI (HS 578T breast): > 100 µM; TGI (LOX IMVI melanoma): > 100 µM; TGI (SF-295 CNS): > 100 µM; TGI (NCI-H460 lung): > 100 µM; TGI (BT-549 breast): > 100 µM; TGI (HCT-15 colon): > 100 µM; TGI (T-47D breast): > 100 µM; TGI (SNB-19 CNS): > 100 µM; TGI (UACC-257 melanoma): > 100 µM

**Q.** COC(=O)C1=COC2OC3C(C(C)O)C(=O)OC34C=CC1C24 (centres undefined) was tested. Which TGI (CAKI-1 renal) did it give?
**A.** Its TGI is > 100 µM.

**Q.** And the TGI (SK-MEL-5 melanoma)?
**A.** The TGI was > 100 µM.

**Q.** And the TGI (SN12C renal)?
**A.** The TGI was > 100 µM.

**Q.** And the TGI (MDA-MB-231 breast)?
**A.** Its TGI is > 100 µM.

**Q.** And the TGI (MALME-3M melanoma)?
**A.** The TGI was > 100 µM.

**Q.** And the TGI (SF-539 CNS)?
**A.** Its TGI is > 100 µM.

**Q.** And the TGI (OVCAR-4 ovarian)?
**A.** The TGI was > 100 µM.

**Q.** What about the TGI (A498 renal) of the same molecule?
**A.** Its TGI is > 100 µM.

**Q.** What about the TGI (786-0 renal) of the same molecule?
**A.** Its TGI is > 100 µM.

**Q.** And the TGI (ACHN renal)?
**A.** The TGI was > 100 µM.

**Q.** And the TGI (HL-60(TB) leukemia)?
**A.** The TGI was 39.7 µM.

**Q.** And the TGI (PC-3 prostate)?
**A.** Its TGI is > 100 µM.

**Q.** And the TGI (MCF7 breast)?
**A.** Its TGI is > 100 µM.

**Q.** What about the TGI (K-562 leukemia) of the same molecule?
**A.** Its TGI is > 100 µM.

**Q.** What about the TGI (SNB-75 CNS) of the same molecule?
**A.** The TGI was > 100 µM.

**Q.** What about the TGI (OVCAR-8 ovarian) of the same molecule?
**A.** The TGI was 47.2 µM.

**Q.** And the TGI (RPMI-8226 leukemia)?
**A.** Its TGI is 90.8 µM.

**Q.** And the TGI (UO-31 renal)?
**A.** The TGI was > 100 µM.

**Q.** What about the TGI (OVCAR-5 ovarian) of the same molecule?
**A.** The TGI was > 100 µM.

**Q.** And the TGI (HCT-116 colon)?
**A.** Its TGI is > 100 µM.

**Q.** What about the TGI (NCI-H226 lung) of the same molecule?
**A.** The TGI was > 100 µM.

**Q.** And the TGI (HOP-92 NSCLC)?
**A.** The TGI was > 100 µM.

**Q.** And the TGI (U251 CNS)?
**A.** The TGI was > 100 µM.

**Q.** And the TGI (SK-OV-3 ovarian)?
**A.** The TGI was > 100 µM.

**Q.** And the TGI (HCC-2998 colon)?
**A.** Its TGI is > 100 µM.

**Q.** What about the TGI (SF-268 CNS) of the same molecule?
**A.** The TGI was > 100 µM.

**Q.** What about the TGI (A549 NSCLC) of the same molecule?
**A.** Its TGI is > 100 µM.

**Q.** What about the TGI (NCI-H522 lung) of the same molecule?
**A.** Its TGI is 30.5 µM.

**Q.** What about the TGI (DU-145 prostate) of the same molecule?
**A.** Its TGI is > 100 µM.

**Q.** And the TGI (KM12 colon)?
**A.** The TGI was > 100 µM.

**Q.** What about the TGI (HT29 colon) of the same molecule?
**A.** The TGI was > 100 µM.

**Q.** And the TGI (M14 melanoma)?
**A.** Its TGI is > 100 µM.

**Q.** And the TGI (NCI-H23 lung)?
**A.** Its TGI is > 100 µM.

**Q.** And the TGI (NCI/ADR-RES ovarian)?
**A.** Its TGI is 69 µM.

**Q.** What about the TGI (SK-MEL-2 melanoma) of the same molecule?
**A.** Its TGI is > 100 µM.

**Q.** And the TGI (MDA-MB-435)?
**A.** The TGI was > 100 µM.

**Q.** And the TGI (CCRF-CEM leukemia)?
**A.** The TGI was 55.4 µM.

**Q.** What about the TGI (TK-10 renal) of the same molecule?
**A.** The TGI was > 100 µM.

**Q.** And the TGI (MOLT-4 leukemia)?
**A.** The TGI was > 100 µM.

**Q.** And the TGI (COLO 205 colon)?
**A.** Its TGI is > 100 µM.

**Q.** What about the TGI (SK-MEL-28 melanoma) of the same molecule?
**A.** Its TGI is > 100 µM.

**Q.** What about the TGI (IGROV1 ovarian) of the same molecule?
**A.** The TGI was > 100 µM.

**Q.** What about the TGI (SW-620 colon) of the same molecule?
**A.** Its TGI is > 100 µM.

**Q.** And the TGI (MDA-N)?
**A.** Its TGI is > 100 µM.

**Q.** What about the TGI (OVCAR-3 ovarian) of the same molecule?
**A.** Its TGI is > 100 µM.

**Q.** What about the TGI (UACC-62 melanoma) of the same molecule?
**A.** The TGI was 79.1 µM.

**Q.** And the TGI (EKVX NSCLC)?
**A.** Its TGI is > 100 µM.

**Q.** What about the TGI (HS 578T breast) of the same molecule?
**A.** Its TGI is > 100 µM.

**Q.** What about the TGI (LOX IMVI melanoma) of the same molecule?
**A.** The TGI was > 100 µM.

**Q.** What about the TGI (SF-295 CNS) of the same molecule?
**A.** Its TGI is > 100 µM.

**Q.** And the TGI (NCI-H460 lung)?
**A.** Its TGI is > 100 µM.

**Q.** And the TGI (BT-549 breast)?
**A.** Its TGI is > 100 µM.

**Q.** What about the TGI (HCT-15 colon) of the same molecule?
**A.** The TGI was > 100 µM.

**Q.** What about the TGI (T-47D breast) of the same molecule?
**A.** Its TGI is > 100 µM.

**Q.** And the TGI (SNB-19 CNS)?
**A.** The TGI was > 100 µM.

**Q.** What about the TGI (UACC-257 melanoma) of the same molecule?
**A.** Its TGI is > 100 µM.
